Measurements as given in ChEMBL document CHEMBL1201862, “PubChem BioAssay data set” (2004).
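All cell lines were grown in 96-well plates and treated with compound for 48 hours. Here, GI50 denotes the concentration required for 50% inhibition of growth.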 Active and inactive are the calls of the source. No stated cut-off is given here; in the data, active = GI50 up to about 1.1 µM and inactive = higher.

Assays:
Assay in all cases: inhibition of tumour cell growth, NCI panel, 48 h
[1] = system: 786-0
[2] = system: A549
[3] = system: ACHN
[4] = system: BT-549
[5] = system: CCRF-CEM
[6] = system: COLO 205
[7] = system: DU-145
[8] = system: EKVX
[9] = system: HCC 2998
[10] = system: HCT-116
[11] = system: HCT-15
[12] = system: HOP-62
[13] = system: HOP-92
[14] = system: HT-29
[15] = system: Hs-578T
[16] = system: IGROV-1
[17] = system: K562
[18] = system: KM12
[19] = system: LOX IMVI
[20] = system: M14
[21] = system: MCF7
[22] = system: MDA-MB-231
[23] = system: MDA-MB-435
[24] = system: MDA-N
[25] = system: MOLT-4
[26] = system: NCI-H23
[27] = system: NCI-H522
[28] = system: NCI/ADR-RES
[29] = system: OVCAR-3
[30] = system: OVCAR-4
[31] = system: OVCAR-5
[32] = system: OVCAR-8
[33] = system: PC-3
[34] = system: RPMI-8226
[35] = system: RXF 393
[36] = system: SF-268
[37] = system: SF-295
[38] = system: SF-539
[39] = system: SK-MEL-28
[40] = system: SK-MEL-2
[41] = system: SK-MEL-5
[42] = system: SK-OV-3
[43] = system: SN12C
[44] = system: SNB-19
[45] = system: SNB-75
[46] = system: SR
[47] = system: SW-620
[48] = system: TK-10
[49] = system: U-251
[50] = system: UACC-257
[51] = system: UACC-62
[52] = system: UO-31
[53] = system: Malme-3M
[54] = system: NCI-H226
[55] = system: A498
[56] = system: CAKI-1
[57] = system: HL-60
[58] = system: NCI-H460

O=c1[nH]nc(-c2ccccc2)n1/N=C/c1c(O)ccc2ccccc12
GI50 [1]: 31.3 µM (inactive) | GI50 [2]: 24.9 µM (inactive) | GI50 [3]: 26.3 µM (inactive) | GI50 [4]: 45.7 µM (inactive) | GI50 [5]: > 100 µM (inactive) | GI50 [6]: 31.8 µM (inactive) | GI50 [7]: 76.4 µM (inactive) | GI50 [8]: > 100 µM (inactive) | GI50 [9]: 28.4 µM (inactive) | GI50 [10]: 30 µM (inactive) | GI50 [11]: 42.6 µM | GI50 [12]: 34.8 µM (inactive) | GI50 [13]: 34.2 µM (inactive) | GI50 [14]: 86.5 µM (inactive) | GI50 [15]: 14.1 µM (inactive) | GI50 [16]: > 100 µM (inactive) | GI50 [17]: 60 µM (inactive) | GI50 [18]: 6.75 µM (inactive) | GI50 [19]: 46.9 µM (inactive) | GI50 [20]: 93.8 µM (inactive) | GI50 [21]: 59.7 µM (inactive) | GI50 [22]: 83.6 µM (inactive) | GI50 [23]: 56.5 µM (inactive) | GI50 [24]: 73.6 µM (inactive) | GI50 [25]: > 100 µM (inactive) | GI50 [26]: 26.8 µM (inactive) | GI50 [27]: 91.2 µM (inactive) | GI50 [28]: 30.3 µM (inactive) | GI50 [29]: 17.3 µM (inactive) | GI50 [30]: 15.4 µM (inactive) | GI50 [31]: > 100 µM (inactive) | GI50 [32]: 48.6 µM (inactive) | GI50 [33]: 37.8 µM (inactive) | GI50 [34]: 82.2 µM (inactive) | GI50 [35]: 23.8 µM (inactive) | GI50 [36]: 32.7 µM (inactive) | GI50 [37]: 29 µM (inactive) | GI50 [38]: 31.2 µM (inactive) | GI50 [39]: 75.7 µM (inactive) | GI50 [40]: 62.7 µM (inactive) | GI50 [41]: 30.2 µM (inactive) | GI50 [42]: 28.2 µM (inactive) | GI50 [43]: 45.3 µM (inactive) | GI50 [44]: 24.9 µM (inactive) | GI50 [45]: 31.7 µM (inactive) | GI50 [46]: 72.6 µM (inactive) | GI50 [47]: 37.8 µM (inactive) | GI50 [48]: 38.4 µM (inactive) | GI50 [49]: 26.1 µM (inactive) | GI50 [50]: 68.5 µM (inactive) | GI50 [51]: 54.8 µM (inactive) | GI50 [52]: 36 µM (inactive)

O=S(=O)(O)c1ccc2c(/N=N/c3ccccc3)c(O)ccc2c1
GI50 [2]: > 100 µM (inactive) | GI50 [3]: > 100 µM (inactive) | GI50 [12]: > 100 µM (inactive) | GI50 [14]: > 100 µM (inactive) | GI50 [15]: > 100 µM (inactive) | GI50 [17]: > 100 µM (inactive) | GI50 [19]: > 100 µM (inactive) | GI50 [22]: > 100 µM (inactive) | GI50 [24]: > 100 µM (inactive) | GI50 [53]: > 100 µM (inactive) | GI50 [54]: > 100 µM (inactive) | GI50 [26]: > 100 µM (inactive) | GI50 [27]: > 100 µM (inactive) | GI50 [28]: > 100 µM (inactive) | GI50 [30]: > 100 µM (inactive) | GI50 [33]: > 100 µM (inactive) | GI50 [34]: > 100 µM (inactive) | GI50 [36]: > 100 µM (inactive) | GI50 [37]: > 100 µM (inactive) | GI50 [48]: > 100 µM (inactive) | GI50 [51]: > 100 µM (inactive)

O=c1[nH]n(Cc2ccccc2)c2ccc([N+](=O)[O-])cc12
GI50 [1]: 82.4 µM (inactive) | GI50 [55]: 47.3 µM (inactive) | GI50 [2]: 61 µM (inactive) | GI50 [3]: > 100 µM (inactive) | GI50 [56]: 59.2 µM (inactive) | GI50 [5]: 55.2 µM (inactive) | GI50 [6]: > 100 µM (inactive) | GI50 [7]: > 100 µM (inactive) | GI50 [8]: > 100 µM (inactive) | GI50 [9]: 36.3 µM (inactive) | GI50 [10]: 49.4 µM (inactive) | GI50 [11]: 56.1 µM | GI50 [57]: 33.8 µM (inactive) | GI50 [12]: > 100 µM (inactive) | GI50 [13]: 55.8 µM (inactive) | GI50 [14]: 41.2 µM (inactive) | GI50 [15]: 35.2 µM (inactive) | GI50 [16]: 84.3 µM (inactive) | GI50 [17]: 28.8 µM (inactive) | GI50 [18]: 64.4 µM (inactive) | GI50 [19]: 88.7 µM (inactive) | GI50 [20]: 46.2 µM (inactive) | GI50 [21]: 28.2 µM (inactive) | GI50 [22]: 28.7 µM (inactive) | GI50 [23]: 19.9 µM (inactive) | GI50 [24]: 29.2 µM (inactive) | GI50 [25]: 34.7 µM (inactive) | GI50 [53]: 44.5 µM (inactive) | GI50 [54]: > 100 µM (inactive) | GI50 [26]: 56.5 µM (inactive) | GI50 [58]: 40.6 µM (inactive) | GI50 [27]: 65.5 µM (inactive) | GI50 [28]: 34.8 µM (inactive) | GI50 [29]: > 100 µM (inactive) | GI50 [30]: > 100 µM (inactive) | GI50 [31]: > 100 µM (inactive) | GI50 [32]: > 100 µM (inactive) | GI50 [33]: 37.2 µM (inactive) | GI50 [34]: 48.5 µM (inactive) | GI50 [35]: 71.9 µM (inactive) | GI50 [36]: > 100 µM (inactive) | GI50 [37]: 66.8 µM (inactive) | GI50 [38]: 87.1 µM (inactive) | GI50 [39]: 57.9 µM (inactive) | GI50 [40]: 47.8 µM (inactive) | GI50 [41]: 46.9 µM (inactive) | GI50 [42]: 15.7 µM (inactive) | GI50 [43]: 49.5 µM (inactive) | GI50 [44]: > 100 µM (inactive) | GI50 [46]: 69.7 µM (inactive) | GI50 [47]: 48.9 µM (inactive) | GI50 [48]: > 100 µM (inactive) | GI50 [49]: 49.8 µM (inactive) | GI50 [50]: 60.8 µM (inactive) | GI50 [51]: > 100 µM (inactive) | GI50 [52]: 45.5 µM (inactive)
